Measured values as given in US10509041B2, “Glucose derivative, and cell imaging method and imaging agent using said derivative” (HIROSAKI UNIVERSITY, priority 2014, dated 2019).
Where “and” joins values, the source holds several entries; their conditions need not be identical. Equal values may be shown once.

Experiments:
[1] = test system: MIN6 cell masses (spheroids); test: Fluorescent imaging of tumor cell masses (spheroids) of MIN6 cells with mixed fluorescent glucose derivative solutions; format: cell-based, mouse; conditions: 3 minutes, 6 minutes after start of washout
Procedure: A fluorescent mixed solution containing 100 μM CDG, 100 μM 2-NBDLG, and 20 μM 2-TRLG (CDG/2-NBDLG/2-TRLG) was administered at 37° C. for 3 minutes to MIN6 cell masses (spheroids) at culture day 17, and fluorescent imaging was conducted.
10 μL of a culture solution containing MIN6 cells suspended at a density of 6×10^4 cells/mL was added dropwise onto each glass cover slip, and then, the glass cover slip was left standing for 40 minutes in an incubator for fixation to the glass surface. The cells were cultured by the addition of 3 mL of a culture solution (600 cells/slip). Spheroids were formed by continuing the culture for 15 to 17 days. Half the amount of the culture solution was replaced with a fresh one once every three days.
The MIN6 cells used were cells kindly provided by professor Junichi Miyazaki (Osaka University) and subcultured 6 to 10 times. Half the amount of the culture solution was replaced with a fresh one once every two days.
13.4 g of high glucose-containing Dulbecco's modified Eagle's Medium (DMEM-HG) (Sigma-Aldrich, #D5648), 3.4 g of NaHCO3, and 5 μL of 2-mercaptoethanol were dissolved in 1 L of ultrapure water, and the pH of the solution was adjusted to 7.30 to 7.35 in a CO2 incubator of 37° C. The culture solution was supplemented with fetal bovine serum (Hyclone, Cat# SH30070.03) at a final concentration of 10% and penicillin-streptomycin at a final concentration of 0.5%.
The whole amount of the 0.5 mg CDG vial was recovered using 0.73 mL in total of 10% DMSO and dissolved by addition to 7.0 ml of a KRB solution for image acquisition according to the method described in Non Patent Literature 2.
The whole amount of one 0.5 mg 2-NBDLG vial was dissolved in 7.3 mL of a KRB solution for image acquisition.
The CDG solution and the 2-NBDLG solution were mixed at a ratio of 1:1. The whole amount of the 0.2 mg 2-TRLG vial was recovered using 130 μL in total of DMSO and mixed with 13 ml of the CDG+2-NBDLG mixed solution according to the method described in Non Patent Literature 2 (final concentration: 100 μM CDG+100 μM 2-NBDLG+20 μM 2-TRLG mixed solution). […]
The glass cover slip with the cultured MIN6 cells was transferred into the KRB solution for image acquisition in a perfusion chamber loaded on a stage of a fluorescence microscope, followed by measurement. […]
The KRB solution for image acquisition was warmed in advance in an aluminum syringe heater and supplied to the perfusion chamber through hydrostatic pressure. […] Immediately before being introduced to the perfusion chamber, the solution was rewarmed via an inline heater so that the actually measured temperature of the perfusate in an observation region in the chamber was adjusted to 36±1° C. […]

[2] = Fluorescence spectrum (excitation and fluorescence maxima); format: physicochemical
Text: The fluorescence spectra of CDG synthesized in (1) and QDG synthesized in (2) were compared with the fluorescence spectrum of 2-NBDLG (manufactured by Peptide Institute, Inc.).
The numeric values described above the graph denote the fluorescence maximum of CDG and QDG, respectively. It is evident that the fluorescence maximum was largely shifted to shorter wavelength as compared with the fluorescence maximum of 2-NBDLG present around 550 nm.

[3] = test system: mouse insulinoma cells (MIN6); test: Increase in fluorescence intensity (uptake) after administration of fluorescent glucose derivative to MIN6 cells, influence of cytochalasin B (CB) or phloretin (PHT), fluorescence microplate reader; format: cell-based; conditions: for effect of PHT on increase in fluorescence intensity (uptake) caused by administration: CDG and CLG on the same dish

maximum excitation wavelength (Ex max) [2] [nm]	maximum fluorescence wavelength (Em max) [2] [nm]	Compound	uptake into cells of MIN6 spheroids, intracellular localization ([1]; 100 μM CDG+100 μM 2-NBDLG+20 μM 2-TRLG mixed solution, culture day 17)	fluorescence intensity in the presence of PHT relative to the absence of PHT ([3]; CDG 100 μM, 37° C. 5 minutes, PHT 150 μM, MIN6 culture day 13, average, two independent experiments)	effect of PHT on increase in fluorescence intensity (uptake) caused by administration ([3]; MIN6 culture day 15, 5 minutes)	uptake into cells of MIN6 spheroids, intracellular localization ([1]; 100 μM CLG+100 μM 2-NBDLG+20 μM 2-TRLG mixed solution, culture day 15)	increase in fluorescence intensity caused by administration, compared with CDG (D/L stereoselectivity) ([3]; same dish, MIN6 culture day 15, 5 minutes)
366.5	454.5	O=c1ccc2ccc(NC3C(O)OC(CO)[C@@H](O)[C@@H]3O)cc2o1 (stereo partly drawn) [CDG, 2-deoxy-2-(2-oxo-2H-chromen-7-yl)amino-D-glucose]	not only taken into the cytoplasm but unexpectedly taken into the nucleus	28.5% and 28.8%	significantly inhibited		
366.5	454.5	O=c1ccc2ccc(NC3C(O)OC(CO)[C@H](O)[C@H]3O)cc2o1 (stereo partly drawn) [CLG, 2-deoxy-2-(2-oxo-2H-chromen-7-yl)amino-L-glucose]			significantly inhibited	strongly taken not only into the cytoplasm but into the nucleus	significantly smaller
